Assay results published in PubChem BioAssay (NCI).
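Cultured in 96-well plates, cells were exposed to test compound for 48 hours across five concentrations. Definition used: TGI = concentration required for complete inhibition of growth.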

Experiments:
Assay in all cases: NCI tumour cell line growth inhibition, 48 h
[1] = tested on: 786-0 renal
[2] = tested on: A498 renal
[3] = tested on: A549 NSCLC
[4] = tested on: ACHN renal
[5] = tested on: BT-549 breast
[6] = tested on: CAKI-1 renal
[7] = tested on: CCRF-CEM leukemia
[8] = tested on: COLO 205 colon
[9] = tested on: DU-145 prostate
[10] = tested on: EKVX NSCLC
[11] = tested on: HCC-2998 colon
[12] = tested on: HCT-116 colon
[13] = tested on: HCT-15 colon
[14] = tested on: HL-60(TB) leukemia
[15] = tested on: HOP-62 NSCLC
[16] = tested on: HOP-92 NSCLC
[17] = tested on: HS 578T breast
[18] = tested on: HT29 colon
[19] = tested on: IGROV1 ovarian
[20] = tested on: K-562 leukemia
[21] = tested on: KM12 colon
[22] = tested on: LOX IMVI melanoma
[23] = tested on: M14 melanoma
[24] = tested on: MALME-3M melanoma
[25] = tested on: MCF7 breast
[26] = tested on: MDA-MB-231 breast
[27] = tested on: MDA-MB-435
[28] = tested on: MDA-N
[29] = tested on: NCI-H23 lung
[30] = tested on: NCI-H460 lung
[31] = tested on: NCI-H522 lung
[32] = tested on: NCI/ADR-RES ovarian
[33] = tested on: OVCAR-3 ovarian
[34] = tested on: OVCAR-4 ovarian
[35] = tested on: OVCAR-5 ovarian
[36] = tested on: OVCAR-8 ovarian
[37] = tested on: PC-3 prostate
[38] = tested on: RPMI-8226 leukemia
[39] = tested on: RXF 393 renal
[40] = tested on: SF-268 CNS
[41] = tested on: SF-295 CNS
[42] = tested on: SF-539 CNS
[43] = tested on: SK-MEL-2 melanoma
[44] = tested on: SK-MEL-28 melanoma
[45] = tested on: SK-MEL-5 melanoma
[46] = tested on: SK-OV-3 ovarian
[47] = tested on: SN12C renal
[48] = tested on: SNB-19 CNS
[49] = tested on: SNB-75 CNS
[50] = tested on: SW-620 colon
[51] = tested on: T-47D breast
[52] = tested on: TK-10 renal
[53] = tested on: U251 CNS
[54] = tested on: UACC-257 melanoma
[55] = tested on: UACC-62 melanoma
[56] = tested on: UO-31 renal
[57] = tested on: MOLT-4 leukemia
[58] = tested on: NCI-H226 lung

Measured: TGI

CC1CC2(OC2C)C(=O)OC2CCN(C)C/C=C(/COC(=O)C1(C)O)C2=O (stereo not drawn)
not listed: [57] | [58]
> 100 µM: all other assays above

c1ccc2c(c1)Oc1cccc3cccc-2c13
> 100 µM: all assays above

CCSc1n/c(=C\c2ccc(N(C)C)cc2)c2nnnn12
not listed: [20] | [22] | [42] | [56]
> 100 µM: all other assays above
